Test systems include HOP-62 NSCLC; MOLT-4 leukemia; MCF7 breast; DU-145 prostate; M14 melanoma; SF-268 CNS; TK-10 renal; SK-MEL-2 melanoma; UACC-62 melanoma.
What all share (test): NCI anticancer screen, dose series, 48 h

The structures appear in SMILES notation.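 Following 48 hours of exposure in 96-well plates, responses at five concentrations were used to interpolate endpoints linearly. GI50 marks 50% less growth. TGI is the concentration that stops growth completely.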

For `COc1ccc(N2C(=O)C3c4[nH]c5ccc(Br)cc5c4C4CCC(C(C)(C)C)CC4C3C2=O)cc1` (stereo unspecified), the TGI in the assay with HOP-62 NSCLC, in the assay on MOLT-4 leukemia, with MCF7 breast, in the assay with DU-145 prostate, with M14 melanoma and in the assay with SF-268 CNS was > 100 µM in each case. The TGI in the assay with TK-10 renal, in the assay on SK-MEL-2 melanoma and in the assay on UACC-62 melanoma was > 100 µM throughout.
As to `CC1=C(O)C(=O)C2C(=O)C1C1Cc3ccccc3C21` (stereo unspecified), the TGI with HOP-62 NSCLC, with MOLT-4 leukemia, in the assay on M14 melanoma, with SF-268 CNS, with TK-10 renal and with SK-MEL-2 melanoma was > 100 µM each time. The TGI with UACC-62 melanoma is > 100 µM.
As to `CC(C)NC(=O)OCc1c(CO)c2c(n1C)-c1ccccc1CC2`, the TGI was > 93.3 µM in the assay with HOP-62 NSCLC; 48.9 µM in the assay on MOLT-4 leukemia; > 100 µM in the assay on MCF7 breast; > 100 µM with SF-268 CNS; > 100 µM in the assay on SK-MEL-2 melanoma; 36.6 µM with UACC-62 melanoma.
With `CCOC(=O)C1=CCOc2cc(N(C)C)ccc21`, the TGI in the assay on HOP-62 NSCLC, in the assay with MCF7 breast, in the assay on DU-145 prostate, in the assay with M14 melanoma, in the assay with SF-268 CNS and with TK-10 renal was > 100 µM each time. The TGI in the assay with SK-MEL-2 melanoma and in the assay on UACC-62 melanoma was > 100 µM throughout.
Regarding `COc1ccc(/C(Cl)=C(\C=N/O)c2ccc(OC)c(OC)c2)cc1OC`, the TGI with HOP-62 NSCLC, in the assay on MOLT-4 leukemia, with M14 melanoma, in the assay with SF-268 CNS, with TK-10 renal and in the assay on SK-MEL-2 melanoma was > 100 µM in each case. Further, in the assay with UACC-62 melanoma, the TGI was > 100 µM.
With `CN(/N=C/c1cccc2cccnc12)c1ccc(Cl)cc1[N+](=O)[O-]`, the TGI in the assay with HOP-62 NSCLC, in the assay with MOLT-4 leukemia, with MCF7 breast, with DU-145 prostate, with M14 melanoma and in the assay with SF-268 CNS was > 100 µM throughout. Also, the TGI in the assay on TK-10 renal, in the assay with SK-MEL-2 melanoma and in the assay on UACC-62 melanoma was > 100 µM each time.
Take `Cc1c(N2CCN(C)CC2)nc2ccc(Cl)cc2c1-c1ccccc1`: the TGI in the assay with HOP-62 NSCLC is 36.6 µM; in the assay on MOLT-4 leukemia, > 10 µM; in the assay with M14 melanoma, 34.9 µM; in the assay with SF-268 CNS, > 100 µM; in the assay with TK-10 renal, > 10 µM; in the assay with SK-MEL-2 melanoma, 36.5 µM. The TGI with UACC-62 melanoma stood at 30.3 µM.
Turning to `Nc1nc2ncc(CNc3ccc(C(=O)NC(CCC(=O)O)C(=O)O)cc3)nc2c(=O)[nH]1` (stereo unspecified), the TGI with HOP-62 NSCLC, with MOLT-4 leukemia, in the assay with MCF7 breast, in the assay with M14 melanoma, in the assay on SF-268 CNS and in the assay on TK-10 renal was > 100 µM in each case. In addition, the TGI with SK-MEL-2 melanoma and with UACC-62 melanoma was > 100 µM each time.
Consider `COc1ccc(-c2cc(=O)c3cc(OC)ccc3[nH]2)cc1`, for which the TGI in the assay with HOP-62 NSCLC, in the assay on MOLT-4 leukemia, in the assay on M14 melanoma, in the assay with SF-268 CNS, with TK-10 renal and with UACC-62 melanoma was > 100 µM throughout.
As to `COc1ccccc1-c1cc(=O)c2cc3c(cc2[nH]1)OCO3`, the TGI in the assay on HOP-62 NSCLC, in the assay with MOLT-4 leukemia, with SF-268 CNS, in the assay with TK-10 renal, in the assay on SK-MEL-2 melanoma and in the assay on UACC-62 melanoma was > 100 µM each time. Further, the GI50 in the assay on SF-268 CNS is 64.5 µM.
Regarding `COC1C(O)C(n2ncc3c(SC)nc(SC)nc32)OC1C(O)CO` (stereo unspecified), the TGI with HOP-62 NSCLC, in the assay with MOLT-4 leukemia, in the assay on MCF7 breast, in the assay with SF-268 CNS, in the assay with SK-MEL-2 melanoma and with UACC-62 melanoma was > 100 µM throughout.
As for `CC(C)N=C(N)NC#N`, the TGI in the assay with HOP-62 NSCLC, in the assay with MOLT-4 leukemia, with M14 melanoma, in the assay on SF-268 CNS, in the assay on SK-MEL-2 melanoma and in the assay on UACC-62 melanoma was > 100 µM each time.
In the case of `O=C(CN1CCOCC1)c1ccc2c(c1)oc(=O)n2CCN1CCOCC1`, the TGI in the assay with HOP-62 NSCLC, with MOLT-4 leukemia, with MCF7 breast, with DU-145 prostate, with M14 melanoma and with SF-268 CNS was > 100 µM in each case. In the assay on SK-MEL-2 melanoma, the TGI was > 100 µM.
With `COC(=O)c1ccc(N=NN(C)COc2ccc(Br)cc2)cc1`, the TGI was > 100 µM with HOP-62 NSCLC; > 92.6 µM in the assay with MOLT-4 leukemia; > 100 µM with MCF7 breast; > 100 µM in the assay on SF-268 CNS; > 100 µM in the assay on SK-MEL-2 melanoma; > 100 µM in the assay on UACC-62 melanoma.
For the compound `Cc1cc(/C=C/c2cc[n+](C)c3ccccc23)c(O)c2ncccc12`, the TGI came out at 15 µM with HOP-62 NSCLC; 7.47 µM in the assay on MOLT-4 leukemia; 4.51 µM with M14 melanoma; 11 µM in the assay with SF-268 CNS; 17.5 µM with TK-10 renal; 18.8 µM with SK-MEL-2 melanoma. In addition, the TGI with UACC-62 melanoma is 9.19 µM.

(Values after PubChem BioAssay (NCI).)
